Results published in US20070037875A1, “Genistein inhibition of transthyretin amyloidosis” (The Scripps Research Institute, priority 2005, published 2007).
Like-named read-outs stand apart in the source and are kept apart here. Each block holds one molecule with its values, some of them ahead of it.

Legend:
WT TTR [1] = molecular target: T1, WT TTR (Homo sapiens, UniProt P02766); experiment: Stagnant transthyretin aggregation (fibril formation) assay, turbidity; type: biochemical
T1 construct: made in house; host or cells: E. coli

[2] = molecular target: TTR in human blood plasma (Homo sapiens, UniProt P02766); experiment: Plasma selectivity binding to TTR, antibody capture/HPLC method; settings: 10.8 μM compound in human plasma, 37° C., 18 h; maximum 2.0; lower limit because of wash losses
Caco-2 cells = Caco-2 cells and perfused rat intestinal models; cited from earlier work
[3] = cited from earlier work
V30M TTR = molecular target: T2, V30M TTR (Homo sapiens, UniProt P02766, V50M); experiment: Urea-mediated tetramer dissociation by far-UV circular dichroism; type: biochemical; settings: V30M TTR 1.8 μM, 6.0 M urea, after 120 h
T2 construct: made in house; host or cells: E. coli
Description: (§1) TTR (400 μL, 0.25 mg/mL; 4.5 μM tetramer) was pre-incubated with genistein at concentrations of either 4.5 or 9.0 μM for 18 h at 25° C. Urea (10M, 600 μL) in 50 mM phosphate buffer (pH 7.0) containing 100 mM KCl, 1 mM EDTA and 1 mM DTT was added to the samples immediately prior to the first measurement (1.0 mL total volume, 6.0 M urea, 0.1 mg/mL TTR (1.8 μM tetramer) final concentration). Circular dichroism spectra were recorded as a function of time up to 120 h (25° C.) using a wavelength scan from 220 to 214 nm, sampling every 0.5 nm. The signal from 218 to 215 was averaged and plotted to determine the fraction of TTR tetramer that was dissociated and unfolded at each time point.
(§2) Genistein was further tested for its ability to kinetically stabilize tetrameric TTR against urea-induced dissociation. Since dissociation of the tetramer is required for urea-induced monomer denaturation, it is possible to monitor rate-limiting tetramer dissociation by linking this process to fast monomer unfolding in a post-transition urea concentration (6 M), rendering the process irreversible. The rate and extent of tetramer dissociation at different small molecule concentrations was monitored by far-UV CD spectroscopy in 6.0 M urea. Genistein exerts its most dramatic effect on the amplitude of WT TTR tetramer dissociation (FIG. 4A). At equimolar amounts of genistein and WT TTR (1.8 μM), only 10% of the protein dissociates and unfolds after 120 h, implying that the remainder is stabilized as a consequence of small molecule binding. This compares to 33% of dissociation for V122I (FIG. 4C, triangles) and 87% V30M (FIG. 4B, triangles) dissociating under identical conditions. When the inhibitor concentration (3.6 μM) is twice that of TTR (1.8 μM), only 1% of WT TTR (FIG. 4A, diamonds), 18% of V122I (FIG. 4C, diamonds), and 70% of V30M (FIG. […]) dissociates over the same time period.
(§3) FIG. 4 illustrates a series of graphs showing the rate of urea-mediated tetramer dissociation (6 M) curves for (A) WT (circles), (B) V30M, and (C) V122I TTR. TTR dissociation is slowed dramatically when WT and the variants are preincubated with genistein (1.8 μM, triangles; 3.6 μM, diamonds). The far-UV CD ellipticity at 214-218 nm was compared to that of WT to determine the fraction of TTR that dissociated and rapidly unfolded at each time point.

WT TTR [4] = molecular target: T1, WT TTR; experiment: as above; type: biochemical; settings: WT TTR 1.8 μM, 6.0 M urea, after 120 h
Description: as §1, §2, §3

V122I TTR = molecular target: T3, V122I TTR (Homo sapiens, UniProt P02766, V142I); experiment: as above; type: biochemical; settings: V122I TTR 1.8 μM, 6.0 M urea, after 120 h
T3 construct: made in house; host or cells: E. coli
Description: as §1, §2, §3

[5] = even at the relatively high concentrations employed; cited from earlier work
WT TTR [6] = molecular target: T1, WT TTR; experiment: Isothermal titration calorimetry; type: binding
Description: The dissociation constants characterizing the binding of genistein to WT TTR were determined using a Microcal isothermal titration calorimeter (Microcal Inc., Northhampton, Mass.). A solution of the small molecule (final concentration 432 μM in 25 mM Tris (pH 8.0) containing 100 mM KCl, 1 mM EDTA, 10% EtOH,) was prepared and titrated into an ITC cell containing WT TTR (12 μM in 25 mM Tris (pH 8.0) containing 100 mM KCl, 1 mM EDTA, 10% EtOH). For all runs, a small preliminary injection was followed by identical injections (2.0-5.0 μL) up to a ligand:protein molar ratio of at least 4:1. The data were fit by a nonlinear least squares approach to either an identical binding sites model, or a sequential interacting binding sites model (Foss, T. R.; et al. J. Mol. Biol. 2005, in press) utilizing Microsoft Excel (Microsoft Corporation, Redmond, Wash.) with the Solver plugin.
Isothermal titration calorimetry was employed to determine the dissociation constants of the binding of genistein to WT TTR at pH 8.0 (25° C.). Integration of the thermogram after subtraction of blanks yielded a binding isotherm that fit equally well to a model of two sequential interacting binding sites with negative cooperativity or two identical non-interacting sites. The fit to sequential binding sites yielded dissociation constants of Kd1=40±25 nM, Kd2=1400±170 nM. Fitting the data to identical binding sites gave Kd1=Kd2=845±45 nM with an occupancy of 1.92±0.07.

decrease in aggregation inhibition potency relative to genistein (WT TTR [1]; inhibitor 7.2 μM, twice that of TTR): approximately 4 fold | plasma selectivity: binding stoichiometry to TTR [2]: ≥ 0.75 equivalents per tetramer
SMILES: O=c1c(-c2ccc(O)cc2)coc2cc(O)ccc12 [daidzein, reference compound]

SMILES: O=c1c(-c2ccc(O)cc2)coc2cc(O[C@@H]3O[C@H](CO)[C@@H](O)[C@H](O)[C@H]3O)cc(O)c12 [genistin, reference compound]
permeability, lower than corresponding aglycone (genistein) (Caco-2 cells): approximately 5 fold

decrease in WT TTR aggregation inhibition relative to genistein (WT TTR [1]; pH 4.4): 2 fold
SMILES: O=c1cc(-c2ccc(O)cc2)oc2cc(O)cc(O)c12 [apigenin]

SMILES: O=c1c(-c2ccc(O)cc2)coc2cc(O)cc(O)c12 [genistein]
in vivo plasma concentrations of genistein ([3]; dose of 16 mg/kg of body weight, oral): 0.1 to 8 µM | half-life in plasma ([3]; men): 3.2 h | half-life in plasma ([3]; women): 3.8 h | protein that dissociates and unfolds (V30M TTR; genistein 1.8 μM): 87% | protein that dissociates and unfolds (V30M TTR; genistein 3.6 μM): 70% | protein that dissociates and unfolds (WT TTR [4]; genistein 1.8 μM): 10% | protein that dissociates and unfolds (WT TTR [4]; genistein 3.6 μM): 1% | protein that dissociates and unfolds (V122I TTR; genistein 1.8 μM): 33% | protein that dissociates and unfolds (V122I TTR; genistein 3.6 μM): 18% | adverse health effects in toxicity studies [5]: does not appear to cause adverse health effects | intestinal absorption (Caco-2 cells): efficiently absorbed into the intestine | plasma selectivity: binding stoichiometry to TTR [2]: 1.45 equivalents per tetramer | Kd (WT TTR [6]; Kd1, two sequential interacting binding sites model (negative cooperativity), pH 8.0, 25° C.): 40 nM | Kd (WT TTR [6]; Kd1=Kd2, two identical non-interacting sites model, pH 8.0, 25° C.): 845 nM | Kd (WT TTR [6]; read-out: Kd2, negative cooperativity, ITC): 1400 nM | Kd (WT TTR [6]; read-out: Kd2, two sequential interacting binding sites model (negative cooperativity), pH 8.0, 25° C.): 1400 nM
